In patent publication US20230024302A1, “2,3,5-TRISUBSTITUTED PYRAZOLO[1,5-A]PYRIMIDINE COMPOUNDS” (Arcus Biosciences, Inc., priority 2019, published 2023) one finds IC50 data, which are given here for 20 compounds.

One experiment has as its target T1, PI3Kγ (p120γ) (Homo sapiens, UniProt P48736).
T1 construct: purchased Promega V1761
Briefly: Inhibition of PI3K kinase activity (ADP Glo), PI3Kγ. The note with it: Table 1, p120γ, read-out: biochemical potency (PI3Kγ IC50). In a few lines: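 IC50 values come from a 4-parameter nonlinear fit of ADP-Glo luminescence, which measures ADP produced as PIP2 is phosphorylated to PIP3. The p120γ enzyme (2× stock 8 nM) sat with compound 1 h at rt before substrate (2× stocks: 50 μM ATP, 0.1 mg/ml PIP2) was added. Phosphorylation then proceeded 60 min at rt.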
Background: ADP-Glo turns the ADP formed in a reaction into a luminescent signal.

For a further experiment, the target named is T2, PI3Kγ (Homo sapiens, UniProt P48736).
T2 construct: host or cells: THP-1
Put plainly: PI3Kγ cellular assay in THP-1 cells (AKT pS473 AlphaLISA). Particulars: Table 1, rhMCP-1 stimulated AKT pS473, read-out: cellular potency (PI3Kγ IC50). Format: cell-based. The procedure, abridged:
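Endogenous AKT S473 phosphorylation, detected by AlphaLISA in lysates, serves as the PI3Kγ activity read-out in stimulated, serum-starved THP-1 cells (1.8×10^5/well).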
Background: In Alpha technology, singlet oxygen from a donor bead excites a nearby acceptor bead.

T1 sequence (P48736 whole entry): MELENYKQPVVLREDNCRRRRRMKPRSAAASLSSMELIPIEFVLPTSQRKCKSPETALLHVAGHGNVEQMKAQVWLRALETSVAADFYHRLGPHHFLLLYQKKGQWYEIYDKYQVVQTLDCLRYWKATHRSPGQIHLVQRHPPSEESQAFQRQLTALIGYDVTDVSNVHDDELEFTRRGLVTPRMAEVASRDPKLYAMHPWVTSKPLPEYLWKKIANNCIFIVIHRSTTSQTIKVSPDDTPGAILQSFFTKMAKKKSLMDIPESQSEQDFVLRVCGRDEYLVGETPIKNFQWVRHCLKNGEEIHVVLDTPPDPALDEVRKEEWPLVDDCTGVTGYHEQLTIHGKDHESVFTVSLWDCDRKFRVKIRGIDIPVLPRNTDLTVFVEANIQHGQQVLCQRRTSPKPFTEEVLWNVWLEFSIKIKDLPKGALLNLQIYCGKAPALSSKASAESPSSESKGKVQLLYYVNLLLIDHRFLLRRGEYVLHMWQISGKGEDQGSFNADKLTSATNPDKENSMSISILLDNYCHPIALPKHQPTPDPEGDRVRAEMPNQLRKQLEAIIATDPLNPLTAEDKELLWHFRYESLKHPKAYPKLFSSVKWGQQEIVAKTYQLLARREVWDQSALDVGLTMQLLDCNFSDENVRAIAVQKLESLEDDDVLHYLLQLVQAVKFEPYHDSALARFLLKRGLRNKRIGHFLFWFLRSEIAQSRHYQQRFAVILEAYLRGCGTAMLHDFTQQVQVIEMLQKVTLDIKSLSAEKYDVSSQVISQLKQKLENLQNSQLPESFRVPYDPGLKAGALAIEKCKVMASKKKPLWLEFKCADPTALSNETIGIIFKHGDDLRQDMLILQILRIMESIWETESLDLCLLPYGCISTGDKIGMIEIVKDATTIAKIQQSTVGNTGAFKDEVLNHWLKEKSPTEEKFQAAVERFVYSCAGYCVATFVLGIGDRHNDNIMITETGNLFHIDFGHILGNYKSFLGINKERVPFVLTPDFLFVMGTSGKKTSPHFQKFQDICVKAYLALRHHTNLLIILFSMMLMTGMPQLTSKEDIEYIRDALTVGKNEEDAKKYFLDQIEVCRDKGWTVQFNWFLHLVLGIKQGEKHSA
T2 sequence (P48736 whole entry): as above

Take `C[C@@H](C1CC1)N1Cc2cc(-c3ccn4nc(N)c(C(N)=O)c4n3)cc(NS(C)(=O)=O)c2C1=O` [Example 76, 5-{2-[(S)-1-Cyclopropylethyl]-7-(methylsulfonylamino)-5-isoindolinoyl}-2-amino-1,4,7a-triaza-3-indenecarboxamide]: the results for the IC50 on PI3Kγ (p120γ) and on PI3Kγ were under 100 nM and 100 to 1000 nM, respectively.
In the same order, the values of `C[C@@H](C1CC1)N1Cc2cc(-c3ccn4nc(N)c(C(=O)NC5CC56CC6)c4n3)cc(NS(C)(=O)=O)c2C1=O` (stereo partly drawn) [Example 77, 2-[(S)-1-Cyclopropylethyl]-5-(2-amino-3-{(1-spiro[2.2]pentylamino)carbonyl}-1,4,7a-triaza-5-indenyl)-7-(methylsulfonylamino)-1-isoindolinone] are under 100 nM and under 100 nM.
`C[C@@H](C1CC1)N1Cc2cc(-c3ccn4nc(N)c(C(=O)NC5COC5)c4n3)cc(NS(C)(=O)=O)c2C1=O` [Example 78, 2-Amino-5-{2-[(1S)-1-cyclopropylethyl]-7-methanesulfonamido-1-oxo-2,3-dihydro-1H-isoindol-5-yl}-N-(oxetan-3-yl)pyrazolo[1,5-a]pyrimidine-3-carboxamide]: the half-maximal inhibitory concentration (IC50) at PI3Kγ (p120γ) and on PI3Kγ was under 100 nM throughout.
On to `C[C@@H](C1CC1)N1Cc2cc(-c3ccn4nc(N)c(C(=O)NC5(C)COC5)c4n3)cc(NS(C)(=O)=O)c2C1=O` [Example 79, 2-Amino-5-{2-[(1S)-1-cyclopropylethyl]-7-methanesulfonamido-1-oxo-2,3-dihydro-1H-isoindol-5-yl}-N-(3-methyloxetan-3-yl)pyrazolo[1,5-a]pyrimidine-3-carboxamide], for which the IC50 at PI3Kγ (p120γ) and on PI3Kγ was under 100 nM in each case.
`C[C@@H](C1CC1)N1Cc2cc(-c3ccn4nc(N)c(C(=O)NC5(C#N)COC5)c4n3)cc(NS(C)(=O)=O)c2C1=O` [Example 80, 2-Amino-N-(3-cyanooxetan-3-yl)-5-{2-[(1S)-1-cyclopropylethyl]-7-methanesulfonamido-1-oxo-2,3-dihydro-1H-isoindol-5-yl}pyrazolo[1,5-a]pyrimidine-3-carboxamide]: the IC50 at PI3Kγ (p120γ) and on PI3Kγ was under 100 nM throughout.
As for `C[C@@H](C1CC1)N1Cc2cc(-c3ccn4nc(N)c(C(=O)NC5(C#N)CCC5)c4n3)cc(NS(C)(=O)=O)c2C1=O` [Example 81, 2-Amino-N-(1-cyanocyclobutyl)-5-{2-[(1S)-1-cyclopropylethyl]-7-methanesulfonamido-1-oxo-2,3-dihydro-1H-isoindol-5-yl}pyrazolo[1,5-a]pyrimidine-3-carboxamide], the half-maximal inhibitory concentration (IC50) on PI3Kγ (p120γ) and at PI3Kγ was under 100 nM throughout.
Regarding `C[C@@H](C1CC1)N1Cc2cc(-c3ccn4nc(N)c(C(=O)N[C@H]5C[C@](C)(O)C5)c4n3)cc(NS(C)(=O)=O)c2C1=O` [Example 82, 2-Amino-5-{2-[(1S)-1-cyclopropylethyl]-7-methanesulfonamido-1-oxo-2,3-dihydro-1H-isoindol-5-yl}-N-[trans-3-hydroxy-3-methylcyclobutyl]pyrazolo[1,5-a]pyrimidine-3-carboxamide], the IC50 at PI3Kγ (p120γ) and at PI3Kγ was under 100 nM in each case.
As for `C[C@@H](C1CC1)N1Cc2cc(-c3ccn4nc(N)c(C(=O)N[C@]5(C)C[C@@H](O)C5)c4n3)cc(NS(C)(=O)=O)c2C1=O` [Example 83, 2-Amino-5-{2-[(1S)-1-cyclopropylethyl]-7-methanesulfonamido-1-oxo-2,3-dihydro-1H-isoindol-5-yl}-N-[trans-3-hydroxy-1-methylcyclobutyl]pyrazolo[1,5-a]pyrimidine-3-carboxamide], the IC50 at PI3Kγ (p120γ) and on PI3Kγ was under 100 nM in each case.
As for `CO[C@H]1C[C@H](NC(=O)c2c(N)nn3ccc(-c4cc5c(c(NS(C)(=O)=O)c4)C(=O)N([C@@H](C)C4CC4)C5)nc23)C1` [Example 84, 2-Amino-5-{2-[(1S)-1-cyclopropylethyl]-7-methanesulfonamido-1-oxo-2,3-dihydro-1H-isoindol-5-yl}-N-[trans-3-methoxycyclobutyl]pyrazolo[1,5-a]pyrimidine-3-carboxamide], the IC50 at PI3Kγ (p120γ) and at PI3Kγ was under 100 nM throughout.
In the case of `C[C@@H](C1CC1)N1Cc2cc(-c3ccn4nc(N)c(C(=O)NC[C@H]5C[C@H](O)C5)c4n3)cc(NS(C)(=O)=O)c2C1=O` [Example 85, 2-Amino-5-{2-[(1S)-1-cyclopropylethyl]-7-methanesulfonamido-1-oxo-2,3-dihydro-1H-isoindol-5-yl}-N-{[trans-3-hydroxycyclobutyl]methyl}pyrazolo[1,5-a]pyrimidine-3-carboxamide], the half-inhibitory concentration (IC50) on PI3Kγ (p120γ) and on PI3Kγ was under 100 nM throughout.
As to `C[C@@H](C1CC1)N1Cc2cc(-c3ccn4nc(N)c(C(=O)N[C@@H]5CC[C@@H](O)C5)c4n3)cc(NS(C)(=O)=O)c2C1=O` [Example 86, 2-Amino-5-{2-[(1S)-1-cyclopropylethyl]-7-methanesulfonamido-1-oxo-2,3-dihydro-1H-isoindol-5-yl}-N-[(1R,3R)-3-hydroxycyclopentyl]pyrazolo[1,5-a]pyrimidine-3-carboxamide], the IC50 at PI3Kγ (p120γ) and on PI3Kγ was under 100 nM each time.
With `C[C@@H](C1CC1)N1Cc2cc(-c3ccn4nc(N)c(C(=O)NC5CC5)c4n3)cc(NS(C)(=O)=O)c2C1=O` [Example 87, 2-Amino-N-cyclopropyl-5-{2-[(1S)-1-cyclopropylethyl]-7-methanesulfonamido-1-oxo-2,3-dihydro-1H-isoindol-5-yl}pyrazolo[1,5-a]pyrimidine-3-carboxamide], the half-inhibitory concentration (IC50) on PI3Kγ (p120γ) and at PI3Kγ was under 100 nM in each case.
Regarding `C[C@@H](C1CC1)N1Cc2cc(-c3ccn4nc(N)c(C(=O)N[C@@H]5COC[C@H]5O)c4n3)cc(NS(C)(=O)=O)c2C1=O` [Example 88, 2-Amino-5-{2-[(1S)-1-cyclopropylethyl]-7-methanesulfonamido-1-oxo-2,3-dihydro-1H-isoindol-5-yl}-N-[(3R,4S)-4-hydroxyoxolan-3-yl]pyrazolo[1,5-a]pyrimidine-3-carboxamide], the IC50 at PI3Kγ (p120γ) and at PI3Kγ was under 100 nM each time.
With `C[C@@H](C1CC1)N1Cc2cc(-c3ccn4nc(N)c(C(=O)N[C@H]5CC[C@@](C)(O)CC5)c4n3)cc(NS(C)(=O)=O)c2C1=O` [Example 89, 2-Amino-5-{2-[(1S)-1-cyclopropylethyl]-7-methanesulfonamido-1-oxo-2,3-dihydro-1H-isoindol-5-yl}-N-[cis-4-hydroxy-4-methylcyclohexyl]pyrazolo[1,5-a]pyrimidine-3-carboxamide], the IC50 on PI3Kγ (p120γ) and on PI3Kγ was under 100 nM in each case.
For `C[C@@H](C1CC1)N1Cc2cc(-c3ccn4nc(N)c(C(=O)N[C@H]5CC[C@](O)(C(F)(F)F)CC5)c4n3)cc(NS(C)(=O)=O)c2C1=O` [Example 90, 2-Amino-5-{2-[(1S)-1-cyclopropylethyl]-7-methanesulfonamido-1-oxo-2,3-dihydro-1H-isoindol-5-yl}-N-[cis-4-hydroxy-4-(trifluoromethyl)cyclohexyl]pyrazolo[1,5-a]pyrimidine-3-carboxamide], the IC50 on PI3Kγ (p120γ) and at PI3Kγ was under 100 nM in each case.
As for `C[C@@H](C1CC1)N1Cc2cc(-c3ccn4nc(N)c(C(=O)N[C@H]5CC[C@H](C(C)(C)O)CC5)c4n3)cc(NS(C)(=O)=O)c2C1=O` [Example 91, 2-Amino-5-{2-[(1S)-1-cyclopropylethyl]-7-methanesulfonamido-1-oxo-2,3-dihydro-1H-isoindol-5-yl}-N-[trans-4-(2-hydroxypropan-2-yl)cyclohexyl]pyrazolo[1,5-a]pyrimidine-3-carboxamide], the half-inhibitory concentration (IC50) at PI3Kγ (p120γ) and at PI3Kγ was under 100 nM throughout.
`C[C@@H](C1CC1)N1Cc2cc(-c3ccn4nc(N)c(C(=O)N[C@H]5CC[C@H](C6(O)CC6)CC5)c4n3)cc(NS(C)(=O)=O)c2C1=O` [Example 92, 2-Amino-5-{2-[(1S)-1-cyclopropylethyl]-7-methanesulfonamido-1-oxo-2,3-dihydro-1H-isoindol-5-yl}-N-[trans-4-(1-hydroxycyclopropyl)cyclohexyl]pyrazolo[1,5-a]pyrimidine-3-carboxamide]: the concentration for half-maximal inhibition (IC50) at PI3Kγ (p120γ) and at PI3Kγ was under 100 nM each time.
With `C[C@H](CO)NC(=O)c1c(N)nn2ccc(-c3cc4c(c(NS(C)(=O)=O)c3)C(=O)N([C@@H](C)C3CC3)C4)nc12` [Example 93, 2-Amino-5-{2-[(1S)-1-cyclopropylethyl]-7-methanesulfonamido-1-oxo-2,3-dihydro-1H-isoindol-5-yl}-N-[(2R)-1-hydroxypropan-2-yl]pyrazolo[1,5-a]pyrimidine-3-carboxamide], the concentration for half-maximal inhibition (IC50) at PI3Kγ (p120γ) and at PI3Kγ was under 100 nM each time.
As for `C[C@@H](C1CC1)N1Cc2cc(-c3ccn4nc(N)c(C(=O)NC(C)(C)CO)c4n3)cc(NS(C)(=O)=O)c2C1=O` [Example 94, 2-Amino-5-{2-[(1S)-1-cyclopropylethyl]-7-methanesulfonamido-1-oxo-2,3-dihydro-1H-isoindol-5-yl}-N-(1-hydroxy-2-methylpropan-2-yl)pyrazolo[1,5-a]pyrimidine-3-carboxamide], the concentration for half-maximal inhibition (IC50) on PI3Kγ (p120γ) and on PI3Kγ was under 100 nM throughout.
On to `C[C@@H](C1CC1)N1Cc2cc(-c3ccn4nc(N)c(C(=O)NCCC(C)(C)O)c4n3)cc(NS(C)(=O)=O)c2C1=O` [Example 95, 2-Amino-5-{2-[(1S)-1-cyclopropylethyl]-7-methanesulfonamido-1-oxo-2,3-dihydro-1H-isoindol-5-yl}-N-(3-hydroxy-3-methylbutyl)pyrazolo[1,5-a]pyrimidine-3-carboxamide], for which the IC50 at PI3Kγ (p120γ) and on PI3Kγ was under 100 nM in each case.
